Source: US20240246940A1, “HETEROARYL DERIVATIVE COMPOUND AND USE THEREOF” (VORONOI INC., priority 2021, published 2024)
pIC50: −log10 of the molar value.

How the values were obtained:
[1] = system: N-87 cells (HER2 overexpressing cell line); test: N-87 cell proliferation inhibitory activity (CellTiter-Glo, 72 hours); type: cell-based
Method: To evaluate the cell proliferation inhibitory activity of the compound according to the present invention on HER2 and EGFR kinases, the following method was performed using HER2 overexpressing cell lines (SK-BR-3, BT-474, and N-87) and EGFR expressing cell line (HaCaT).
McCOY'S 5A supplemented with 10% FBS was used for SK-BR-3 cells, RPMI-1640 medium supplemented with 20% FBS was used for BT-474 cancer cells, and RPMI-1640 medium supplemented with 10% FBS was used for N-87 cancer cells. DMEM supplemented with 10% FBS was used for HaCaT cells.
For SK-BR-3 cells, 5000 cells were aliquoted into each well of a white clear bottom 96 well plate (Corning) 48 hours before treatment with the compounds of Examples. For BT-474 cells, 5000 cells were aliquoted into each well of a white clear bottom 96 well plate (Corning) 48 hours before treatment with the compounds of Examples. For N-87 cells, 5000 cells were aliquoted into each well of a white clear bottom 96 well plate (Corning) 24 hours before treatment with the compounds of Examples. For HaCaT cells, 3000 cells were aliquoted into each well of a white clear bottom 96 well plate (Corning) 24 hours before treatment with the compounds of Examples. For SK-BR-3 cells and BT-474 cells, the compounds of Examples were diluted in dimethyl sulfoxide (three-fold dilution, a total of 11 concentrations) and injected each in an amount of 1 μl to a final concentration of 0.2 nM to 10 μM. For N-87 cells, the compounds of Examples were diluted in dimethyl sulfoxide (five-fold dilution, a total of 11 concentrations) and injected each in an amount of 0.5 μl to a final concentration of […] to 5 μM. For HaCaT cells, the compounds of Examples were diluted in dimethyl sulfoxide (three-fold dilution, a total of 11 concentrations) and injected each in an amount of 0.5 μl to a final concentration of 0.8 nM to 45 μM. For the measurement of living cells, the cells were stored at room temperature for 10 minutes using CellTiter-Glo cell viability reagent (Promega) after a certain period of time (SK-BR-3: 120 hours, BT-474: 120 hours, N-87: 72 hours, and HaCaT: 72 hours) post treatment with the compounds of Examples, and the luminescence intensity thereof was measured using a reader (SynergyNeo, Biotek). Each test was repeated three times.
The result values were calculated as a cell growth rate (%) compared to those of the control group. A graph was created using the GraphPad Prism version 5.0 program, and GI50 values were calculated.

[2] = system: SK-BR-3 cells (HER2 overexpressing cell line); test: SK-BR-3 cell proliferation inhibitory activity (CellTiter-Glo, 120 hours); type: cell-based; conditions: Homo sapiens
Summary of the method: (§1)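 GI50 values derive from luminescence-based live-cell counts, expressed relative to control growth. Final compound ranges were 0.2 nM–10 μM for the two breast lines, […]–5 μM in N-87 and 0.8 nM–45 μM in HaCaT. Tests were run three times.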

[3] = system: HaCaT cells (EGFR expressing cell line); test: HaCaT cell proliferation inhibitory activity (CellTiter-Glo, 72 hours); type: cell-based; conditions: Homo sapiens
Summary of the method: as §1

[4] = system: BT-474 cells (HER2 overexpressing cell line); test: BT-474 cell proliferation inhibitory activity (CellTiter-Glo, 120 hours); type: cell-based; conditions: Homo sapiens
Summary of the method: as §1

HER2 = biological target: T1, HER2 (Homo sapiens, UniProt P04626); test: Biochemical kinase assay for HER2 (Reaction Biology Corp), ATP 10 μM, 10-dose IC50
T1 construct: purchased Reaction Biology Corp
T1 sequence (P04626 23-1255): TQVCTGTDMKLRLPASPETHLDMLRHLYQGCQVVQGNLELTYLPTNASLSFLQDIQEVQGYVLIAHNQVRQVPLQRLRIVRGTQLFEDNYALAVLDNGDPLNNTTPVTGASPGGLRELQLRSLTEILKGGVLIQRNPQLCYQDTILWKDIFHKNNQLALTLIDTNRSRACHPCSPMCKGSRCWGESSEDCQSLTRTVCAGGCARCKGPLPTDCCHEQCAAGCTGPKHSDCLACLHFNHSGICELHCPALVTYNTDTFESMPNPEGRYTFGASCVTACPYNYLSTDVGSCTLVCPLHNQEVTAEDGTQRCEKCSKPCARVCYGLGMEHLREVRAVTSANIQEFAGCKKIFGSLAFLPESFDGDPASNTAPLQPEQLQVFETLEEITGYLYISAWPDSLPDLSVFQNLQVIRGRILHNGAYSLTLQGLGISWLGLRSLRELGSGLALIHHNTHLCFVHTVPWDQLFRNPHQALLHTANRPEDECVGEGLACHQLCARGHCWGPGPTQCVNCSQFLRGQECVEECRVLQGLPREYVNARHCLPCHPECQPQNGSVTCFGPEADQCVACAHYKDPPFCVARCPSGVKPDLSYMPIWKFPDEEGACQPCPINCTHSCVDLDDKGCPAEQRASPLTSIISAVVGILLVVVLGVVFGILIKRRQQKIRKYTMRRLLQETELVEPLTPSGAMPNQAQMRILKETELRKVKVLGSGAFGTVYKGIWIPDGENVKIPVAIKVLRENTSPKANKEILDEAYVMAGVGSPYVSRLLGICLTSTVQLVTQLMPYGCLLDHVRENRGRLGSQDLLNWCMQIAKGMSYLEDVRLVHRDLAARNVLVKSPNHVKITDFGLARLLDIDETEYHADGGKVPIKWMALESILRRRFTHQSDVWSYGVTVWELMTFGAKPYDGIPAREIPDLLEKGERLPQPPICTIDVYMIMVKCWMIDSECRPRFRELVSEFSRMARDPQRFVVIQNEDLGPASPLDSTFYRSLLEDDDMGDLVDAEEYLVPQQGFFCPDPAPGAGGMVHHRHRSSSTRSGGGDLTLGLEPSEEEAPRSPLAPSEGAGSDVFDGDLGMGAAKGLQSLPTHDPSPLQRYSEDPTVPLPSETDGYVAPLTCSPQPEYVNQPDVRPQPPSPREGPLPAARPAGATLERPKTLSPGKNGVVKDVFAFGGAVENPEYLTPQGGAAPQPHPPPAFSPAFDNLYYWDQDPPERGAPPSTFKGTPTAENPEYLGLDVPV
Method: Biochemical kinase assays for HER2 and EGFR were performed by Reaction Biology Corp (San Diego, USA).

Structure (SMILES)	GI50 [2] [nM]	GI50 [4] [nM]	pIC50 (HER2)	GI50 [1] [nM]	GI50 [3] [nM]
C=CC(=O)N1CC[C@@H](Oc2cc3c(Nc4cc(-c5ccc(F)cc5F)ccc4OC)ncnc3cc2OC)[C@H](F)C1 (relative stereo) [Example 171, 1-(trans-4-((4-((2′,4′-difluoro-4-methoxy-[1,1′-biphenyl]-3-yl)amino)-7-methoxy-quinazolin-6-yl)oxy)-3-fluoropiperidin-1-yl)prop-2-en-1-one]	≤ 150	≤ 150	–	≤ 150	≤ 150
C=CC(=O)N1CCC(Oc2cc3c(Nc4cc(-c5ccco5)c(F)cc4OC)ncnc3cc2OC)C(F)C1 (centres unmarked) [Example 140, 1-(3-fluoro-4-((4-((4-fluoro-5-(furan-2-yl)-2-methoxyphenyl)amino)-7-methoxy-quinazolin-6-yl)oxy)piperidin-1-yl)prop-2-en-1-one]	≤ 150	≤ 150	–	≤ 150	≤ 150
C=CC(=O)N1CC(Oc2cc3c(Nc4cc(-c5ccc(F)nc5)ccc4OC)ncnc3cc2OC)C1 [Example 22, 1-(3-( (4-((5-(6-fluoropyridin-3-yl)-2-methoxyphenyl)amino)-7-methoxy-quinazolin-6-yl)oxy)azetidin-1-yl)prop-2-en-1-one]	≤ 150	≤ 150	–	≤ 150	≤ 150
C=CC(=O)N1CCC(Oc2cc3c(Nc4cc(-c5ccc(F)cc5F)c(F)cc4OC)ncnc3cc2OC)CC1 [Example 157, 1-(4-((7-methoxy-4-((2′,4′,6-trifluoro-4-methoxy-[1,1′-biphenyl]-3-yl)amino)quinazolin-6-yl)oxy)piperidin-1-yl)prop-2-en-1-one]	–	≤ 150	≥ 7.30	≤ 150	≤ 150
C=CC(=O)N1CC(Oc2cc3c(Nc4cc(-c5cccc(C(F)(F)F)c5F)ccc4OC)ncnc3cc2OC)C1 [Example 17, 1-(3-((4-((2′-fluoro-4-methoxy-3′-(trifluoromethyl)-[1,1′-biphenyl]-3-yl)amino)-7-methoxy-quinazolin-6-yl)oxy)azetidin-1-yl)prop-2-en-1-one]	≤ 150	≤ 150	–	≤ 150	150 to 1000
C=CC(=O)N1CC(Oc2cc3c(Nc4cc(-c5ccccc5F)ccc4OC)ncnc3cc2OC)C1 [Example 24, 1-(3-((4-((2′-fluoro-4-methoxy-[1,1′-biphenyl]-3-yl)amino)-7-methoxy-quinazolin-6-yl)oxy)azetidin-1-yl)prop-2-en-1-one]	≤ 150	≤ 150	–	≤ 150	≤ 150
C=CC(=O)N1CC(Oc2cc3c(Nc4cc(-c5cccc(C#N)c5F)ccc4OC)ncnc3cc2OC)C1 [Example 21, 3'-((6-((1-acryloylazetidin-3-yl)oxy)-7-methoxy-quinazolin-4-yl)amino)-2-fluoro-4′-methoxy-[1,1′-biphenyl]-3-carbonitrile]	≤ 150	≤ 150	–	≤ 150	≤ 150
C=CC(=O)N1CCC(F)(F)C(Oc2cc3c(Nc4cc(-c5ccco5)ccc4OC)ncnc3cc2OC)C1 (centres unmarked) [Example 113, 1-(4,4-difluoro-3-((4-((5-(furan-2-yl)-2-methoxyphenyl)amino)-7-methoxy-quinazolin-6-yl)oxy)piperidin-1-yl)prop-2-en-1-one]	≤ 150	≤ 150	–	≤ 150	≤ 150
C=CC(=O)N1CC[C@H](Oc2cc3c(Nc4cc(-c5ccc(F)cc5F)ccc4OC)ncnc3cc2OC)[C@H](F)C1 (relative stereo) [Example 182, 1-(cis-4-((4-((2′,4′-difluoro-4-methoxy-[1,1′-biphenyl]-3-yl)amino)-7-methoxy-quinazolin-6-yl)oxy)-3-fluoropiperidin-1-yl)prop-2-en-1-one]	≤ 150	≤ 150	–	≤ 150	≤ 150

Further lines, with some results ahead:

GI50 [2] [nM]	GI50 [4] [nM]	pIC50 (HER2)	Structure (SMILES)	GI50 [1] [nM]	GI50 [3] [nM]
≤ 150	≤ 150	–	C=CC(=O)N1CCC(Oc2cc3c(Nc4cc(-c5ccsc5)ccc4OC)ncnc3cc2OC)CC1 [Example 79, 1-(4-((7-methoxy-4-((2-methoxy-5-(thiophen-3-yl)phenyl)amino)quinazolin-6-yl)oxy)piperidin-1-yl)prop-2-en-1-one]	≤ 150	≤ 150
≤ 150	≤ 150	–	C=CC(=O)N1CCC(Oc2cc3c(Nc4cc(-c5cc(N)c(F)cc5C)ccc4OC)ncnc3cc2OC)CC1 [Example 161, 1-(4-((4-((5′-amino-4′-fluoro-4-methoxy-2′-methyl-[1,1′-biphenyl]-3-yl)amino)-7-methoxy-quinazolin-6-yl)oxy)piperidin-1-yl)prop-2-en-1-one]	≤ 150	≤ 150
≤ 150	≤ 150	–	C=CC(=O)N1CCC(Oc2cc3c(Nc4cc(-c5cccc(N(C)C)c5)ccc4OC)ncnc3cc2OC)CC1 [Example 151, 1-(4-((4-((3′-(dimethylamino)-4-methoxy-[1,1′-biphenyl]-3-yl)amino)-7-methoxy-quinazolin-6-yl)oxy)piperidin-1-yl)prop-2-en-1-one]	≤ 150	150 to 1000
≤ 150	≤ 150	–	C=CC(=O)N1CCC(Oc2cc3c(Nc4cc(-c5ccc(F)c(C(F)(F)F)c5)ccc4OC)ncnc3cc2OC)CC1 [Example 142, 1-(4-((4-((4′-fluoro-4-methoxy-3′-(trifluoromethyl)-[1,1′-biphenyl]-3-yl)amino)-7-methoxy-quinazolin-6-yl)oxy)piperidin-1-yl)prop-2-en-1-one]	≤ 150	150 to 1000
–	–	≥ 7.30	C=CC(=O)N1CCC(Oc2cc3c(Nc4cc(-c5cc(C)co5)ccc4OC)ncnc3cc2OC)CC1 [Example 90, 1-(4-((7-methoxy-4-((2-methoxy-5-(4-methylfuran-2-yl)phenyl)amino)quinazolin-6-yl)oxy)piperidin-1-yl)prop-2-en-1-one]	–	–
≤ 150	≤ 150	–	C=CC(=O)N1CCC(Oc2cc3c(Nc4cc(-c5cccc(C(F)(F)F)c5)ccc4OC)ncnc3cc2OC)CC1 [Example 139, 1-(4-((7-methoxy-4-((4-methoxy-3′-(trifluoromethyl)-[1,1′-biphenyl]-3-yl)amino)quinazolin-6-yl)oxy)piperidin-1-yl)prop-2-en-1-one]	≤ 150	150 to 1000
≤ 150	≤ 150	–	C=CC(=O)N1CCC(Oc2cc3c(Nc4cc(-c5ccc(F)cc5)ccc4OC)ncnc3cc2OC)CC1 [Example 67, 1-(4-((4-((4′-fluoro-4-methoxy-[1,1′-biphenyl]-3-yl)amino)-7-methoxy-quinazolin-6-yl)oxy)piperidin-1-yl)prop-2-en-1-one]	≤ 150	150 to 1000
≤ 150	≤ 150	–	C=CC(=O)N1CCC(Oc2cc3c(Nc4cc(-c5cccc(C(F)(F)F)c5F)ccc4OC)ncnc3cc2OC)CC1 [Example 138, 1-(4-((4-((2′-fluoro-4-methoxy-3′-(trifluoromethyl)-[1,1′-biphenyl]-3-yl)amino)-7-methoxy-quinazolin-6-yl)oxy)piperidin-1-yl)prop-2-en-1-one]	≤ 150	150 to 1000
